According to patent US8609836B2, “4-aryl-2-anilino-pyrimidines” (Janssen Pharmaceutica NV, priority 2008, dated 2013):

Experiments:
[1] = molecular target: PLK4 (h) (Homo sapiens, UniProt O00444); test: PLK-4 human kinase inhibition, scintillation proximity assay (SPA); assay type: biochemical; conditions: read-out: PLK4 pIC50 (converted)
[2] = tested on: MDA-MB-231; test: Cellular proliferation assay (Alamar blue), MDA-MB-231; assay type: cell-based; conditions: Homo sapiens, 10% FCS, 72 hours with compound, Alamar blue 24 h, read-out: MDA/MB231 (cellular proliferation assay, Table 4) (converted)
Outline: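 Growth inhibition measured after 72 h incubation with compound, following 24 h pre-culture at 37° C, 5% CO2 with 10% FCS. Resazurin-based read-out at 544/590 nm after 4 h (HCT-116), 6 h (U87-MG) or 24 h (A2780, MDA-MB-231); results relative to control.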

[3] = molecular target: CDK1/CyclinB (h) (Homo sapiens, UniProt P06493); test: CDK1/CyclinB human kinase inhibition, Invitrogen's FRET assay (Z'lyte); assay type: biochemical; conditions: read-out: CDK1 pIC50 (converted)
Outline: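 Read-out is the 460 nm/538 nm emission ratio (390 nm excitation) after a 60 min protease development step. Before that, 10 μM ATP and 2 μM Z'lyte Ser/Thr peptide 12 react 60 min at room temperature with 0.2 μg/ml human CDK1/CyclinB in Hepes pH 7.5 containing MgCl2, EGTA and Brij-35.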

[4] = molecular target: AuroraB (h) (Homo sapiens, UniProt Q96GD4); test: Aurora-B human kinase inhibition, SPA; assay type: biochemical; conditions: read-out: AuroraB pIC50 (converted)
Outline: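 AuroraB (0.5 μg/ml) phosphorylates 3 μM biotin-peptide using 0.5 μM ATP spiked with 33P-ATP in Hepes pH 7.5 with 3 mM MgCl2 and MnCl2, for 60 min at room temperature. EDTA stop solution carries streptavidin scintillant beads, and the captured radiolabel is imaged.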

Sequence of CDK1/CyclinB (h) (P06493 whole entry): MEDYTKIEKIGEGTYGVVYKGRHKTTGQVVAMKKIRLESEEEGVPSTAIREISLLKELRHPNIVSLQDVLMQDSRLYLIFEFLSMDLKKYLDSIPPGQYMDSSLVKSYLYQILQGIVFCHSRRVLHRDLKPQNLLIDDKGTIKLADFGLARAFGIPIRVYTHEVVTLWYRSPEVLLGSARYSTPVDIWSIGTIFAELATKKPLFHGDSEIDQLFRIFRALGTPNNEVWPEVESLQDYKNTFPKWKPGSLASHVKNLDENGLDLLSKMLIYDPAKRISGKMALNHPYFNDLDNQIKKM
Sequence of CDK1/CyclinB (h) (P14635 whole entry partner): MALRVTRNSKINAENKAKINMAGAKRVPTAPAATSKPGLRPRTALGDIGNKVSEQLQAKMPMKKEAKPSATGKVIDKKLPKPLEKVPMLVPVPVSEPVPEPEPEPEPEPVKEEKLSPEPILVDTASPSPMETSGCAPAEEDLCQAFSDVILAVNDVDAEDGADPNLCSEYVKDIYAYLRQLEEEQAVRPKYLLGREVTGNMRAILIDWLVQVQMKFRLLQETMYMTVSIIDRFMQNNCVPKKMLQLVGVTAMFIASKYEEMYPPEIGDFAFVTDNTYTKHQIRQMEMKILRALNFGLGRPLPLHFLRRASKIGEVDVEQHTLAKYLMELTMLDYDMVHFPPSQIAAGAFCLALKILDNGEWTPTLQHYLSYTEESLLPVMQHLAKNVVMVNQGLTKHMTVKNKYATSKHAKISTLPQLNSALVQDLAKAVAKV
Sequence of PLK4 (h) (O00444 whole entry): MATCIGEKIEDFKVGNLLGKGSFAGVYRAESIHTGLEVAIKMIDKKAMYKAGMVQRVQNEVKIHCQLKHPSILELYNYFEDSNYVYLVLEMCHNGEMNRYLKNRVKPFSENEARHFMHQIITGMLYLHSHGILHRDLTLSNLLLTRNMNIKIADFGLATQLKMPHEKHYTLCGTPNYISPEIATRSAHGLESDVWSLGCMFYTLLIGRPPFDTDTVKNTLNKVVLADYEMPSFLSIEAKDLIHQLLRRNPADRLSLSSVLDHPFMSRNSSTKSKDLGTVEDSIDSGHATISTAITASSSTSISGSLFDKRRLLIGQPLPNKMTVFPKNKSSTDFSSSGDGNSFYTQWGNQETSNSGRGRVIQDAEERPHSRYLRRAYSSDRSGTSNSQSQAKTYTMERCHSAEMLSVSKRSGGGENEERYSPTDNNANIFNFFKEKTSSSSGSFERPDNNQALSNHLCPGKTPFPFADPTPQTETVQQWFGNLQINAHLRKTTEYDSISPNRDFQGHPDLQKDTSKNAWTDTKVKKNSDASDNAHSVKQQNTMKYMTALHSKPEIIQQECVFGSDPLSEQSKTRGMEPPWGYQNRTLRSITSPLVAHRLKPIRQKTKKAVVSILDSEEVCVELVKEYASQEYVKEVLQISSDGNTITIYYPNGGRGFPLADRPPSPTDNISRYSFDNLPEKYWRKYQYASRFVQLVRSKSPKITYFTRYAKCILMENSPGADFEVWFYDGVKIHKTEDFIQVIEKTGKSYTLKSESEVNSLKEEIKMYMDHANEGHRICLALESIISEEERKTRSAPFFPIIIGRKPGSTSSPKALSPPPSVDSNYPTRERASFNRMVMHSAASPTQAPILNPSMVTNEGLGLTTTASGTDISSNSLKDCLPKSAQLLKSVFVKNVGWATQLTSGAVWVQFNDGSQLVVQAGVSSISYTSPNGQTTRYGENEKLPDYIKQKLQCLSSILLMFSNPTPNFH
Sequence of AuroraB (h) (Q96GD4 whole entry): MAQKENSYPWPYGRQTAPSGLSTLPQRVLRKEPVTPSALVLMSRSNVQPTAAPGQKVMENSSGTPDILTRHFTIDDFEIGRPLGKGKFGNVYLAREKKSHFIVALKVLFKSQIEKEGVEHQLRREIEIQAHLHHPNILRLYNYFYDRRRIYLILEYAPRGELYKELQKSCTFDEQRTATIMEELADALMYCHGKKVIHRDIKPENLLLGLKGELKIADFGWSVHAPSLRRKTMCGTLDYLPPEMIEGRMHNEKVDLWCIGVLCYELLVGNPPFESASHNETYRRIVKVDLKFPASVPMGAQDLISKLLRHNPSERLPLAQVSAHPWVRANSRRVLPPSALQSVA

Row | Structure (SMILES) | IC50 [1] [µM] | IC50 [2] [µM] | melting point [°C] | IC50 [3] [µM] | IC50 [4] [µM]
1 | O=C1NCCCc2cc(ccn2)-c2ccnc(n2)Nc2cccc(c2)CN[C@H]1CO [Compound 19] | 1.2 | 6.17 | 253.6 to 254.9 | 0.0562 | > 10
2 | O=C1CN2CCN(CC2)Cc2cccc(c2)Nc2nccc(n2)-c2ccnc(c2)CCCN1 [Compound 21] | 4.27 | > 10 | 243.2 to 244.3 | 0.105 | > 10
3 | O=C1CN2CCN(CC2)Cc2cc(ccc2N2CCOCC2)Nc2nccc(n2)-c2cccc(c2)OCCCN1 [Compound 103] | 1.1 | > 10 |  | > 10 | > 10
4 | CN1CCCNC(=O)[C@H](CO)NCc2cccc(c2)Nc2nccc(n2)-c2ccc(cc2)C1 [Compound 113] | 1.17 | > 10 |  | > 10 | > 10
5 | O=C1NCCNCc2ccc(cc2)-c2ccnc(n2)Nc2ccc(N3CCOCC3)c(c2)CN[C@H]1CO [Compound 115] | 1.35 | > 10 |  | > 10 | > 10
6 | COc1ccc2cc1CNCCNC(=O)CN1CCN(CC1)Cc1cc(ccc1N1CCOCC1)Nc1nccc-2n1 [Compound 126] | 0.813 | > 10 |  | > 10 | 8.71
7 | COc1ccc2cc1CN(C)CCCNC(=O)CN1CCN(CC1)Cc1cc(cc(NC(C)C)c1)Nc1nccc-2n1 [Compound 130] | 1.23 | > 10 |  | 7.76 | 6.31
8 | CN1CCNC(=O)CN2CCN(CC2)Cc2cc(cc(N3CCOCC3)c2)Nc2nccc(n2)-c2ccc(cc2)C1 [Compound 135] | 1.74 | > 10 |  | > 10 | > 10
9 | COc1ccc2cc1CN(C)CCCNC(=O)CN1CCN(CC1)Cc1cc(cc(N3CCOCC3)c1)Nc1nccc-2n1 [Compound 141] | 3.02 | > 10 |  | > 10 | > 10
10 | COc1ccc2cc1CN(C)CCNC(=O)CN1CCN(CC1)Cc1cc(cc(NC(C)C)c1)Nc1nccc-2n1 [Compound 142] | 3.31 | > 10 |  | 8.51 | > 10
11 | COc1ccc2cc1CN(C)CCCNC(=O)CN1CCN(CC1)Cc1cc(Br)cc(c1)Nc1nccc-2n1 [Compound 144] | 4.17 | > 10 |  | > 10 | 7.94
12 | COc1ccc2cc1CN(C)CCNC(=O)CN1CCN(CC1)Cc1cc(cc(N3CCOCC3)c1)Nc1nccc-2n1 [Compound 145] | 4.37 | > 10 |  | > 10 | > 10
13 | COc1ccc2cc1CN(C)CCCNC(=O)CN1CCN(CC1)Cc1cccc(c1)Nc1nccc-2n1 [Compound 146] | 6.76 | > 10 |  | > 10 | > 10
14 | COc1ccc2cc1CN(C)CCNC(=O)CN1CCN(CC1)Cc1cccc(c1)Nc1nccc-2n1 [Compound 147] | > 10 | > 10 |  | > 10 | > 10
15 | CC(C)Nc1cc2cc(c1)Nc1nccc(n1)-c1ccc(cc1)CN(C)CCNC(=O)[C@@H]1CCCN1C2 [Compound 153] | 0.776 | > 10 |  | 2.82 | > 10
16 | CN1CCNC(=O)[C@@H]2CCCN2Cc2cc(Br)cc(c2)Nc2nccc(n2)-c2ccc(cc2)C1 [Compound 155] | 0.832 | > 10 |  | > 10 | > 10
17 | O=C1NCCNc2cc(ccn2)-c2ccnc(n2)Nc2ccc(N3CCOCC3)c(c2)CN2CCCC12 (stereo not drawn) [Compound 161] | 1.58 | > 10 |  | 5.13 | 6.17
18 | COc1ccc2cc1CN(C)CCCNC(=O)[C@@H]1CCCN1Cc1cc(cc(NC(C)C)c1)Nc1nccc-2n1 [Compound 164] | 2.63 | > 10 |  | > 10 | > 10
19 | O=C1NCCCNCc2ccc(cc2)-c2ccnc(n2)Nc2ccc(N3CCOCC3)c(c2)CN2C[C@H](O)C[C@@H]12 [Compound 169] | 3.89 | > 10 |  | > 10 | > 10
20 | CN1CCCNC(=O)[C@@H]2CCCN2Cc2cccc(c2)Nc2nccc(n2)-c2ccc(cc2)C1 [Compound 173] | 6.17 | > 10 |  | > 10 | > 10
21 | COc1ccc2cc1CN(C)CCNC(=O)[C@@H]1CCCN1Cc1cccc(c1)Nc1nccc-2n1 [Compound 175] | 8.51 | > 10 |  | > 10 | > 10
22 | COc1ccc2cc1CNCCNC(=O)[C@@H]1C[C@@H](O)CN1Cc1cc(ccc1N1CCOCC1)Nc1nccc-2n1 [Compound 177] | > 10 | > 10 |  | > 10 | > 10
23 | COc1ccc2cc1CNCCNC(=O)[C@@H]1CCCN1Cc1cc(ccc1N1CCOCC1)Nc1nccc-2n1 [Compound 178] | > 10 | > 10 |  | > 10 | > 10
24 | COc1ccc2cc1CN(C)CCCNC(=O)[C@@H]1CCCN1Cc1cc(cc(N3CCOCC3)c1)Nc1nccc-2n1 [Compound 179] | > 10 | > 10 |  | > 10 | > 10
25 | COc1ccc2cc1CN(C)CCCNC(=O)[C@@H]1CCCN1Cc1cccc(c1)Nc1nccc-2n1 [Compound 180] | > 10 | > 10 |  | > 10 | > 10
